Consider seven molecules from ChEMBL document CHEMBL6115028, “An Amazing 30-Year Journey around the DABO Family: A Medicinal Chemistry Lesson on a Versatile Class of Non-nucleoside HIV-1 Reverse Transcriptase Inhibitors” (J Med Chem, 2025).

Data set [1] has as its system Human immunodeficiency virus 1. Briefly: Antiviral activity against HIV-1 A17 infected in human […] cells at 0.03 MOI assessed as reduction in viral replication incubated for 2 hrs by ELISA analysis. Type of data set: functional, organism-based. The following applies: Human immunodeficiency virus 1, A17, C8166, 2 h. For orientation: ELISA stands for enzyme-linked immunosorbent assay.

The test system of data set [2] is Human immunodeficiency virus 1. Kind of data set: Antiviral activity against HIV-1 IIIB infected in human […] cells at 0.03 MOI assessed as reduction in viral replication incubated for 2 hrs by ELISA analysis. The class given is functional, organism-based. The following applies: Human immunodeficiency virus 1, IIIB, C8166, 2 h.
The test system of data set [3] is Human immunodeficiency virus 1. Briefly: Antiviral activity against HIV-1 NL4-3 harboring reverse transcriptase V106A mutant infected in human C8166 cells assessed as reduction in virus-induced cytopathic effect measured for 2 hrs by ELISA analysis. Type of data set: functional, organism-based. Conditions: Human immunodeficiency virus 1, NL4-3, C8166, 2 h. In general terms: Protection from cytopathic effect is a common read-out in antiviral testing.

The test system of data set [4] is MT4. Briefly: Cytotoxicity against human MT4 cells assessed as reduction in cell growth measured after 3 days by MTT assay. The class given is functional. Conditions: MT4, 72 h, time 3 day.
For data set [5], the system named is Human immunodeficiency virus 1. Kind of data set: Antiviral activity against HIV-1 WAN infected in human […] cells at 0.03 MOI assessed as reduction in viral replication incubated for 2 hrs by ELISA analysis. Conditions: Human immunodeficiency virus 1, WAN, C8166, 2 h. The class given is functional, organism-based.
For data set [6], the system named is Human immunodeficiency virus 1. Briefly: Antiviral activity against wild type HIV-1 NL4-3 harboring reverse transcriptase infected in human C8166 cells assessed as reduction in virus-induced cytopathic effect measured for 2 hrs by ELISA analysis. The class given is functional, organism-based. The following applies: Human immunodeficiency virus 1, NL4-3, C8166, 2 h.

In data set [7] the test system is C8166. Kind of data set: Cytotoxicity against human C8166 cells assessed as reduction in cell growth measured after 3 days by MTT assay. Type of data set: functional. Conditions: C8166, 72 h, time 3 day.
Data set [8] has as its system Human immunodeficiency virus 1. Kind of data set: Antiviral activity against HIV-1 TC-2 infected in human […] cells at 0.03 MOI assessed as reduction in viral replication incubated for 2 hrs by ELISA analysis. Type of data set: functional, organism-based. Conditions: Human immunodeficiency virus 1, TC-2, C8166, 2 h.
Data set [9] has as its system Human immunodeficiency virus 1. Briefly: Antiviral activity against HIV-1 NL4-3 harboring reverse transcriptase V106M mutant infected in human C8166 cells assessed as reduction in virus-induced cytopathic effect measured for 2 hrs by ELISA analysis. Conditions: Human immunodeficiency virus 1, NL4-3, C8166, 2 h. The class given is functional, organism-based.
The nature of data set [10]: Solubility in water. Type of data set: physicochemical.
Data set [11] in a line: Cytotoxicity against human PBMC cells assessed as reduction in cell growth measured after 3 days by MTT assay. The class given is functional. The following applies: 72 h, time 3 day. (Formazan colour is commonly taken as a measure of viable cells.)
The test system of data set [12] is Human immunodeficiency virus 1. Briefly: Antiviral activity against HIV-1 NL4-3 harboring reverse transcriptase V108I mutant infected in human C8166 cells assessed as reduction in virus-induced cytopathic effect measured for 2 hrs by ELISA analysis. The following applies: Human immunodeficiency virus 1, NL4-3, C8166, 2 h. The class given is functional, organism-based.

The subject of data set [13] is Human immunodeficiency virus 1. Briefly: Antiviral activity against HIV-1 NL4-3 harboring reverse transcriptase K103N mutant infected in human C8166 cells assessed as reduction in virus-induced cytopathic effect measured for 2 hrs by ELISA analysis. Conditions: Human immunodeficiency virus 1, NL4-3, C8166, 2 h. The class given is functional, organism-based.
The test system of data set [14] is Human immunodeficiency virus 1. Kind of data set: Antiviral activity against HIV-1 NL4-3 harboring reverse transcriptase Y181C mutant infected in human C8166 cells assessed as reduction in virus-induced cytopathic effect measured for 2 hrs by ELISA analysis. The following applies: Human immunodeficiency virus 1, NL4-3, C8166, 2 h. The class given is functional, organism-based.

Data set [15] has as its target T1, Human immunodeficiency virus type 1 reverse transcriptase (Human immunodeficiency virus 1, UniProt Q72547). Briefly: Inhibition of HIV-1 Reverse transcriptase.
Data set [16] deals with Human immunodeficiency virus 1. Briefly: Antiviral activity against HIV-1 MN infected in human […] cells at 0.03 MOI assessed as reduction in viral replication incubated for 2 hrs by ELISA analysis. Type of data set: functional, organism-based. Conditions: Human immunodeficiency virus 1, MN, C8166, 2 h.
The subject of data set [17] is Human immunodeficiency virus 1. Kind of data set: Antiviral activity against HIV-1 KM018 infected in human […] cells at 0.03 MOI assessed as reduction in viral replication incubated for 2 hrs by ELISA analysis. Type of data set: functional, organism-based. Conditions: Human immunodeficiency virus 1, KM018, C8166, 2 h.
Data set [18] has as its target T1, Human immunodeficiency virus type 1 reverse transcriptase. Briefly: Binding affinity to wild type HIV-1 reverse transcriptase assessed as inhibition constant.
Data set [19] concerns the target Reverse transcriptase (Human immunodeficiency virus 1, UniProt Q9WKE8, K103N). Kind of data set: Binding affinity to HIV-1 reverse transcriptase K103N mutant assessed as inhibition constant.
The test system of data set [20] is Human immunodeficiency virus 1. Kind of data set: Antiviral activity against wild type HIV-1 NL4-3 infected in human MT4 cells assessed as reduction in viral replication measured for 72 hrs by ELISA analysis. The class given is functional, organism-based. The following applies: Human immunodeficiency virus 1, NL4-3, MT4, 72 h.
Data set [21] in a line: Oral bioavailability in rat. Conditions: in vivo. The class given is ADME, organism-based.
Data set [22] concerns Human immunodeficiency virus 1. Briefly: Antiviral activity against HIV-1 IIIB infected in […] cells assessed as reduction in viral replication measured for 72 hrs. The class given is functional, organism-based. Conditions: Human immunodeficiency virus 1, IIIB.
The test system of data set [23] is A-375. Briefly: Inhibition of cell proliferation in human A-375 cells assessed as alive cells at 100 uM measured for 96 hrs relative to control. The class given is functional.
Data set [24] has as its system A-375. Briefly: Inhibition of cell proliferation in human A-375 cells assessed as alive cells at 50 uM measured for 96 hrs relative to control. The class given is functional.
The test system of data set [25] is HepG2 2.2.15. Kind of data set: Cytotoxicity against human HepG2.2.15 cells assessed as reduction in cell growth by MTT assay. The class given is functional.
The subject of data set [26] is Hepatitis B virus. Kind of data set: Antiviral activity against Hepatitis B virus infected in human HepG2.2.15 cells assessed as inhibition of HBV DNA production by qRT-PCR analysis. The class given is functional, organism-based.
Data set [27] is described as follows: Inhibition of Zika virus NS5 RNA-directed RNA polymerase NS5.
Data set [28] has as its system Zika virus. Briefly: Antiviral activity against Zika virus infected in Vero cells assessed as reduction in viral DNA replication. Type of data set: functional, organism-based.
The nature of data set [29]: Cytotoxicity against African green monkey Vero cells assessed as reduction in cell growth measured after 96 hrs by MTT assay. The class given is toxicity, cell-based. Conditions: chlorocebus sabaeus.
Data set [30] is described as follows: Inhibition of Hepatitis C virus NS5B RNA dependent RNA polymerase. Further details: species or system Hepacivirus hominis.
Data set [31] in a line: Cytotoxicity against African green monkey Vero cells assessed as reduction in cell viability measured after 96 hrs by MTT assay. Type of data set: toxicity, cell-based. The following applies: chlorocebus sabaeus.
In data set [32] the test system is HOP-92. Kind of data set: Growth inhibition of human HOP-92 cells at 10 uM relative to control. Conditions: read-out: GI. The class given is functional.

What is called EC50 is the concentration that produces a half-maximal response. The CC50 is the concentration that lowers cell viability or growth by half. As usually defined, the solubility is the dissolved amount per volume that the medium holds. For orientation: IC50 means the concentration needed to halve the response being measured. The Ki is the dissociation constant of the complex between target and ligand, obtained from inhibition or displacement. In general, bioavailability refers to the share of a dose that reaches the circulation, judged against a reference dose that is usually intravenous. The term inhibition denotes the share of the control response that was lost under treatment.

For `CCc1c(CC2CCCCC2)nc(SCC(=O)c2ccccc2)[nH]c1=O`, the 50% effective concentration (EC50) in data set [1] worked out at 38.9 µM; in data set [2], 0.002 µM; in data set [3] it was 0.734 µM; in data set [5], 0.025 µM; in data set [6], 0.007 µM; in data set [8], 0.008 µM. Also, the concentration for a half-maximal effect (EC50) in data set [9] amounted to 0.172 µM; in [12], 0.012 µM; in data set [13] it was 0.709 µM; in data set [14] it was 0.241 µM; in [16], 0.005 µM; in data set [17], 0.041 µM. The cytotoxic concentration (CC50) in data set [4], in data set [7] and in data set [11] was above 100 µM each time. Moreover, in data set [10], the concentration in solution (solubility) came to 4 µg/mL. Further, the IC50 in data set [15] was found to be 0.44 µM.

As to `Cc1c(C(C)c2c(F)cccc2Cl)nc(N(C)C)[nH]c1=O` (centres undefined), the inhibition constant Ki in data set [18] stood at 0.017 µM; in data set [19] it was 0.75 µM. Besides, the EC50 in data set [20] turned out to be 0.003 µM.

In the case of `CCc1c(CC2CCCCC2)nc(SCC(=O)c2ccc(OP(=O)(OC)OC)cc2)[nH]c1=O`, in data set [21], the bioavailability turned out to be 14.6%. For the same molecule, the concentration in solution in data set [10] (solubility) was 6.4 µM. The EC50 in [22] is 0.01 µM. In data set [15], 0.75 µM corresponded to half-maximal inhibition (IC50).

Turning to `CCC(C)Sc1nc(C(C)c2c(F)cccc2F)nc(=O)[nH]1` (centres undefined), the inhibition at 100 µM in data set [23] came to 14%. The inhibition at 50 µM in data set [24] amounted to 62%.

For `O=c1[nH]c(SC2OC[C@H](O)[C@@H](O)[C@@H]2O)nc(Cc2ccccc2)c1Cc1ccccc1` (some centres undefined), the CC50 in data set [25] is above 100 µM. The EC50 in data set [26] was 0.2 µM.

`CCc1c(C2CCCCC2)nc(SCC(=O)Nc2cc(F)cc(F)c2)[nH]c1=O`: the figures for the concentration for half-maximal inhibition (IC50) in [27] and in data set [30] were 11.4 µM and 0.102 µM, respectively. Also, the EC50 in [28] amounted to 7.65 µM. In addition, the cytotoxic concentration (CC50) at 96 h in data set [29] is above 200 µM; in data set [31] it was above 10 µM.

Take `N#Cc1c(-c2c(Cl)cccc2Cl)nc(SCC(=O)c2ccc(Br)cc2)[nH]c1=O`: the inhibition of growth at 10 µM in data set [32] was found to be 41%.
